Earlier results on two molecules are cited in US20220395489A1, “THERAPEUTIC APPROACH FOR TREATING INFLAMMATORY BOWEL DISEASE” (THE REGENTS OF THE UNIVERSITY OF CALIFORNIA, priority 2019, published 2022).

Non-standard residues stand in square brackets, D forms with d. Residues, ends and D or L forms follow the SMILES beside them. *: point of attachment. Sta = CC(C)C[C@H](N)[C@@H](O)CC(=O)O; Isovaleryl = CC(C)CC(=O)*

For data set [1] the following is noted: water.
For data set [2] the following is noted: low pH values, compared with PMSF.

For the molecule `Cl.NCCc1ccc(S(=O)(=O)F)cc1` [AEBSF, 4-(2-aminoethyl)benzenesulfonyl fluoride hydrochloride], in data set [1], the solubility entry was “water-soluble”. In addition, in data set [2], the stability result is “more stable”.

In the case of `CC(C)CC(=O)N[C@H](C(=O)N[C@H](C(=O)N[C@@H](CC(C)C)[C@@H](O)CC(=O)N[C@@H](C)C(=O)N[C@@H](CC(C)C)[C@@H](O)CC(=O)O)C(C)C)C(C)C` [Pepstatin, Isovaleryl-Val-Val-Sta-Ala-Sta] (Isovaleryl-VV[Sta]A[Sta]-OH), the “ability to inhibit pepsin” value in the data set with pepsin is listed as “picomolar concentrations”.
